Test results published in patent US20030181515A1, “Methods of using kavalactone compositions” (Kava Pharmaceuticals, Inc., a Delaware corporation, priority 2001, published 2003).
“Also recorded” adds a separate entry of the source.

Each compound was assayed on IL-12 (assay: IL-12 inhibitory assay in IFNγ-primed, LPS-stimulated human PBMC (ELISA)). Details: human PBMC primed with IFNγ, supernatants 20 h later, FIG. 1.
Type: cell-based
Method: This invention is based in part on the unexpected discovery that specific kavalactones inhibit production of IL-12, whose overproduction is implicated in a number of diseases and disease symptoms. The IL-12 inhibitory activity of six major kavalactones (e.g., desmethoxyyangonin, dihydrokawain, dihydromethysticin, kawain, methysticin, and yangonin) was measured using a cellular assay for determination of IL-12 cytokine inhibition. […] Thus, compositions containing one of the three active kavalactones, kawain, dihydrokawain, dihydromethysticin, or a combination thereof, are useful for treating disease or disease symptoms related to IL-12 overproduction.
Referring back to FIG. 1, six kavalactones were tested in an IL-12 inhibitory assay as follows: Lipopolysaccharide (LPS, Serratia marscencens) was obtained from Sigma (St. Louis, Mo.). Human recombinant IFNg was purchased from Boehringer Mannheim. (Mannheim, Germany). Human peripheral blood mononuclear cells were isolated by centrifugation using Ficall-Paque (Pharmacia Biotech, Uppsala, Sweden) and prepared in RPMI medium supplemented with 10% FCS and antibiotics in a 96-well plate with 1×10^6 cells/well. Human PBMC were primed with IFNγ (30 U/mL) for 16 h and then stimulated with […] of LPS in the presence of different concentrations of test compound. Cell-free supernatants were taken 20 h later for measurement of cytokines. Cell viability was assessed using the bioreduction of MTS [3-(4,5-dimethylthiazol-2-yl)-5-(3-carboxymethoxyphenyl)-2-(4-sulfophenyl)-2H-tetrazolium] (Promega, Madison, Wis.). Cell survival was estimated as the ratio of the absorbance in compound-treated groups versus compound-free control. Human IL-12 was assayed using ELISA kits (Endogen, Cambridge, Mass.), essentially according to the manufacturer's instructions. IL-12 inhibition can also be measured by other methods (e.g., in vivo, in vitro, animal models) of assaying for enzyme inhibition activity.

Structure (SMILES) | IL-12 inhibitory activity
COC1=CC(=O)O[C@@H](CCc2ccccc2)C1 [dihydrokawain] | much higher IL-12 inhibitory activity relative to the other kavalactones; also recorded: exhibit IL-12 inhibitory activity
COC1=CC(=O)O[C@@H](CCc2ccc3c(c2)OCO3)C1 [dihydromethysticin] | much higher IL-12 inhibitory activity relative to the other kavalactones; also recorded: exhibit IL-12 inhibitory activity
COC1=CC(=O)O[C@@H](/C=C/c2ccccc2)C1 [kawain] | much higher IL-12 inhibitory activity relative to the other kavalactones; also recorded: exhibit IL-12 inhibitory activity
